From the supplement of paper PMC11061612

Key:
[1] = compound: C1CN(CCC1(C(=O)N[C@@H](CCO)C2=CC=C(C=C2)Cl)N)C3=NC=NC4=C3C=CN4 [Capivasertib]; settings: max 10 µM
Method in brief: (§1)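 Cancer cell lines were dosed for 72 hours (final DMSO typically 0.2%) after 24 hours at 37°C and 5% CO2 in 1536-well plates containing 7.5 μl DMEM/F12 or RPMI with 10% FBS. Viability came from CellTiter-Glo 2.0 luminescence, scaled between blank-well and DMSO-well means, and dose responses were fitted to a two-parameter logistic curve with a non-linear mixed effects model. The single-agent IC50 was obtained from this fit.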

[2] = compound: C=CCn1c(=O)c2cnc(Nc3ccc(N4CCN(C)CC4)cc3)nc2n1-c1cccc(C(C)(C)O)n1 [AZD1775]; settings: max 3 µM
Method in brief: as §1

[3] = compound: CC(=O)Nc1cccc(-n2c(=O)n(C3CC3)c(=O)c3c(Nc4ccc(I)cc4F)n(C)c(=O)c(C)c32)c1 [Trametinib]; settings: max 1 µM
Method in brief: as §1

[4] = compound: CC(=O)c1c(C)c2cnc(Nc3ccc(N4CCNCC4)cn3)nc2n(C2CCCC2)c1=O [Palbociclib]; settings: max 10 µM
Method in brief: as §1

[5] = compound: CC(C)n1c(=O)n(C)c2cnc3cc(F)c(-c4ccc(OCCCN5CCCCC5)nc4)cc3c21 [AZD1390]; settings: max 0.3 µM
Method in brief: as §1

[6] = compound: CC1(C)CCC(CN2CCN(c3ccc(C(=O)NS(=O)(=O)c4ccc(NCC5CCOCC5)c([N+](=O)[O-])c4)c(Oc4cnc5[nH]ccc5c4)c3)CC2)=C(c2ccc(Cl)cc2)C1 [Venetoclax]; settings: max 1 µM
Method in brief: as §1

[7] = compound: CC1=C(C(=CC=C1)Cl)NC(=O)C2=CN=C(S2)NC3=CC(=NC(=N3)C)N4CCN(CC4)CCO [Dasatinib]; settings: max 2 µM
Method in brief: as §1

[8] = compound: CC1=CN2[C@@H](C1)C=NC3=CC(=C(C=C3C2=O)OC)OCCCCCOC4=C(C=C5C(=C4)N=C[C@@H]6CC(=CN6C5=O)C)OC [SG3199]; settings: max 0.001 µM
Method in brief: as §1

[9] = compound: CCN(CCO)CCCOc1ccc2c(Nc3cc(CC(=O)Nc4cccc(F)c4)[nH]n3)ncnc2c1 [AZD2811]; settings: max 1 µM
Method in brief: as §1

[10] = compound: CCc1c2c(nc3ccc(O)cc13)-c1cc3c(c(=O)n1C2)COC(=O)[C@]3(O)CC [SN-38]; settings: max 0.3 µM
Method in brief: as §1

[11] = compound: CN(C)CCCOc1ccc(-c2ccc3ncc4c(c3c2)n(C2CCOCC2)c(=O)n4C)cn1 [AZD0156]; settings: max 3 µM
Method in brief: as §1

[12] = compound: CN(CC[C@H](CSC1=CC=CC=C1)NC2=C(C=C(C=C2)S(=O)(=O)NC(=O)C3=CC=C(C=C3)N4CCC(CC4)[C@H](C5=CC=CC=C5C6=CC=C(C=C6)Cl)O)S(=O)(=O)C(F)(F)F)CCO [AZD4320]; settings: max 1 µM
Method in brief: as §1

[13] = compound: COc1cc(Nc2ncc3c(n2)-c2ccc(Cl)cc2C(c2c(F)cccc2OC)=NC3)ccc1C(=O)O [Alisertib]; settings: max 10 µM
Method in brief: as §1

[14] = compound: COc1cc2ncnc(Nc3ccc(F)c(Cl)c3)c2cc1OCCCN1CCOCC1 [Gefitinib]; settings: max 10 µM
Method in brief: as §1

[15] = compound: COc1cccc(OCCCN)c1-c1cc(Nc2cnc(C#N)cn2)n[nH]1 [Prexasertib]; settings: max 1 µM
Method in brief: as §1

[16] = compound: COc1cccc2c1C(=O)c1c(O)c3c(c(O)c1C2=O)C[C@@](O)(C(=O)CO)C[C@@H]3O[C@H]1C[C@H](N)[C@H](O)[C@H](C)O1 [Doxorubicin]; settings: max 1 µM
Method in brief: as §1

[17] = compound: COc1nnc2ccc(N3CCC(c4ccc(OCCN5CCN(C)C(=O)[C@H]5C)cc4)CC3)nn12 [AZD5153]; settings: max 1 µM
Method in brief: as §1

[18] = compound: CS(=O)(=O)CCNCc1ccc(-c2ccc3ncnc(Nc4ccc(OCc5cccc(F)c5)c(Cl)c4)c3c2)o1 [Lapatinib]; settings: max 10 µM
Method in brief: as §1

[19] = compound: C[C@@H](Nc1cc(F)cc(F)c1)c1cc(C(=O)N(C)C)cc2c(=O)cc(N3CCOCC3)oc12 [AZD8186]; settings: max 3 µM
Method in brief: as §1

[20] = compound: C[C@@H](Oc1cc(-c2cnn(C3CCNCC3)c2)cnc1N)c1c(Cl)ccc(F)c1Cl [Crizotinib]; settings: max 10 µM
Method in brief: as §1

[21] = compound: C[C@@H](c1ccc2nccn2c1)n1nnc2ncc(-c3cnn(C)c3)nc21 [Savolitinib]; settings: max 1 µM
Method in brief: as §1

[22] = compound: C[C@@H]1COCCN1C2=NC(=NC(=C2)C3(CC3)[S@](=N)(=O)C)C4=C5C=CNC5=NC=C4 [AZD6738]; settings: max 10 µM
Method in brief: as §1

[23] = compound: Cc1c2c(nn1C)CSCc1cc(n(C)n1)CSc1cc(c3ccccc3c1)OCCCc1c(C(=O)O)n(C)c3c-2c(Cl)ccc13 [AZD5991]; settings: max 1 µM
Method in brief: as §1

[24] = compound: Cc1cc2ncnn2cc1Nc1ncc2c(n1)n(C1CCOCC1)c(=O)n2C [AZD7648]; settings: max 10 µM
Method in brief: as §1

[25] = compound: Cc1nc(-c2cn3c(n2)-c2ccc(-c4cnn(C(C)(C)C(N)=O)c4)cc2OCC3)n(C(C)C)n1 [Taselisib]; settings: max 10 µM
Method in brief: as §1

[26] = compound: Cn1cnc2c(F)c(Nc3ccc(Br)cc3Cl)c(C(=O)NOCCO)cc21 [Selumetinib]; settings: max 10 µM
Method in brief: as §1

[27] = compound: O=C(c1cc(Cc2n[nH]c(=O)c3ccccc23)ccc1F)N1CCN(C(=O)C2CC2)CC1 [Olaparib]; settings: max 10 µM
Method in brief: as §1

Row | Cell Line | IC50, cell viability 72 h [1] [µM] | IC50, cell viability 72 h [2] [µM] | IC50, cell viability 72 h [3] [µM] | IC50, cell viability 72 h [4] [µM] | IC50, cell viability 72 h [5] [µM] | IC50, cell viability 72 h [6] [µM] | IC50, cell viability 72 h [7] [µM] | IC50, cell viability 72 h [8] [µM] | IC50, cell viability 72 h [9] [µM] | IC50, cell viability 72 h [10] [µM] | IC50, cell viability 72 h [11] [µM] | IC50, cell viability 72 h [12] [µM] | IC50, cell viability 72 h [13] [µM] | IC50, cell viability 72 h [14] [µM] | IC50, cell viability 72 h [15] [µM] | IC50, cell viability 72 h [16] [µM] | IC50, cell viability 72 h [17] [µM] | IC50, cell viability 72 h [18] [µM] | IC50, cell viability 72 h [19] [µM] | IC50, cell viability 72 h [20] [µM] | IC50, cell viability 72 h [21] [µM] | IC50, cell viability 72 h [22] [µM] | IC50, cell viability 72 h [23] [µM] | IC50, cell viability 72 h [24] [µM] | IC50, cell viability 72 h [25] [µM] | IC50, cell viability 72 h [26] [µM] | IC50, cell viability 72 h [27] [µM]
1 | 647-V (Bladder Carcinoma) | > 10 | 0.812 | > 1 | > 10 | > 0.3 | > 1 | > 2 | > 0.001 | > 1 | 0.00235 | > 3 | > 1 | > 10 | > 10 | 0.174 | 0.24 | > 1 | > 10 | > 3 | > 10 | > 1 | > 10 | 0.961 | > 10 | > 10 | > 10 | > 10
2 | A172 (Glioblastoma) | > 10 | > 3 | > 1 | > 10 | > 0.3 | > 1 | > 2 | > 0.001 | 0.708 | 0.0441 | > 3 | > 1 | 1.42 | > 10 | 0.367 | 0.189 | > 1 | > 10 | > 3 | > 10 | > 1 | 9.49 | > 1 | > 10 | > 10 | > 10 | > 10
